Measurements published in the NIST ThermoML archive (doi:10.1021/je900689m).
Numbers after ± are expanded uncertainties.

Assay: xn = mol fraction of the nth substance listed
Conditions: 101 kPa, Liquid; for viscosity: Capillary tube (Ostwald / Ubbelohde) method

CC(C)Cc1ccccc1 [(2-methylpropyl)benzene] + CCOC=O
Conditions | mass density, 303.15 K [kg/m3] | mass density, 308.15 K [kg/m3] | mass density, 313.15 K [kg/m3] | speed of sound, 303.15 K [m/s] | speed of sound, 308.15 K [m/s] | speed of sound, 313.15 K [m/s] | viscosity, 303.15 K [mPa·s] | viscosity, 308.15 K [mPa·s] | viscosity, 313.15 K [mPa·s]
x2 = 0 | 844.4 ± 0.7 | 841.1 ± 0.8 | 837.6 ± 0.8 | 1268 ± 6 | 1252 ± 6 | 1236 ± 6 | 0.905 ± 0.012 | 0.848 ± 0.012 | 0.784 ± 0.012
x2 = 0.1772 | 849.5 ± 0.7 | 845.8 ± 0.7 | 842.1 ± 0.8 | 1248 ± 6 | 1228 ± 6 | 1208 ± 5 | 0.788 ± 0.012 | 0.726 ± 0.011 | 0.666 ± 0.011
x2 = 0.3217 | 854.9 ± 0.7 | 851 ± 0.7 | 847 ± 0.7 | 1224 ± 6 | 1204 ± 5 | 1184 ± 5 | 0.699 ± 0.011 | 0.641 ± 0.011 | 0.591 ± 0.011
x2 = 0.4514 | 860.8 ± 0.7 | 856.8 ± 0.7 | 852.6 ± 0.7 | 1200 ± 5 | 1180 ± 5 | 1160 ± 5 | 0.625 ± 0.011 | 0.573 ± 0.011 | 0.529 ± 0.011
x2 = 0.5631 | 866.8 ± 0.7 | 862.7 ± 0.7 | 858.3 ± 0.7 | 1180 ± 5 | 1160 ± 5 | 1140 ± 5 | 0.569 ± 0.011 | 0.522 ± 0.011 | 0.48 ± 0.011
x2 = 0.6604 | 873.3 ± 0.7 | 868.8 ± 0.7 | 864.3 ± 0.7 | 1164 ± 5 | 1144 ± 5 | 1124 ± 5 | 0.52 ± 0.011 | 0.479 ± 0.011 | 0.442 ± 0.011
x2 = 0.7444 | 879.7 ± 0.7 | 875 ± 0.7 | 870.3 ± 0.7 | 1148 ± 5 | 1128 ± 5 | 1108 ± 5 | 0.481 ± 0.011 | 0.445 ± 0.011 | 0.413 ± 0.011
x2 = 0.8191 | 886.3 ± 0.7 | 881.5 ± 0.7 | 876.6 ± 0.7 | 1132 ± 5 | 1112 ± 5 | 1092 ± 5 | 0.45 ± 0.011 | 0.415 ± 0.011 | 0.384 ± 0.011
x2 = 0.8852 | 893.1 ± 0.7 | 888 ± 0.7 | 883 ± 0.7 | 1120 ± 5 | 1100 ± 5 | 1080 ± 5 | 0.418 ± 0.011 | 0.388 ± 0.011 | 0.362 ± 0.01
x2 = 0.9461 | 900.5 ± 0.7 | 895.3 ± 0.7 | 890 ± 0.7 | 1104 ± 5 | 1084 ± 5 | 1064 ± 5 | 0.394 ± 0.011 | 0.369 ± 0.01 | 0.347 ± 0.01

c1ccccc1 [benzene] + CCOC=O
x2 = 0
Conditions | mass density [kg/m3] | speed of sound [m/s] | viscosity [mPa·s]
303.15 K | 867.6 ± 0.7 | 1276 ± 6 | 0.569 ± 0.011
308.15 K | 863.2 ± 0.7 | 1252 ± 6 | 0.534 ± 0.011
313.15 K | 858.9 ± 0.7 | 1228 ± 6 | 0.497 ± 0.011

CCCCc1ccccc1 [butylbenzene] + CCOC=O
Conditions | mass density, 303.15 K [kg/m3] | mass density, 308.15 K [kg/m3] | mass density, 313.15 K [kg/m3] | speed of sound, 303.15 K [m/s] | speed of sound, 308.15 K [m/s] | speed of sound, 313.15 K [m/s] | viscosity, 303.15 K [mPa·s] | viscosity, 308.15 K [mPa·s] | viscosity, 313.15 K [mPa·s]
x2 = 0 | 851.3 ± 0.7 | 848 ± 0.7 | 844.6 ± 0.7 | 1308 ± 6 | 1292 ± 6 | 1276 ± 6 | 0.901 ± 0.012 | 0.844 ± 0.012 | 0.787 ± 0.012
x2 = 0.1738 | 855.4 ± 0.7 | 851.9 ± 0.7 | 848.4 ± 0.7 | 1284 ± 6 | 1264 ± 6 | 1244 ± 6 | 0.782 ± 0.012 | 0.713 ± 0.011 | 0.65 ± 0.011
x2 = 0.3241 | 860.3 ± 0.7 | 856.6 ± 0.7 | 852.9 ± 0.7 | 1252 ± 6 | 1232 ± 6 | 1212 ± 5 | 0.692 ± 0.011 | 0.627 ± 0.011 | 0.571 ± 0.011
x2 = 0.4533 | 865.4 ± 0.7 | 861.5 ± 0.7 | 857.5 ± 0.7 | 1220 ± 6 | 1200 ± 5 | 1180 ± 5 | 0.625 ± 0.011 | 0.569 ± 0.011 | 0.518 ± 0.011
x2 = 0.563 | 870.7 ± 0.7 | 866.6 ± 0.7 | 862.4 ± 0.7 | 1196 ± 5 | 1176 ± 5 | 1156 ± 5 | 0.571 ± 0.011 | 0.521 ± 0.011 | 0.476 ± 0.011
x2 = 0.6587 | 876.3 ± 0.7 | 872 ± 0.7 | 867.6 ± 0.7 | 1176 ± 5 | 1156 ± 5 | 1136 ± 5 | 0.525 ± 0.011 | 0.48 ± 0.011 | 0.44 ± 0.011
x2 = 0.744 | 882.2 ± 0.7 | 877.6 ± 0.7 | 873.1 ± 0.7 | 1156 ± 5 | 1136 ± 5 | 1116 ± 5 | 0.482 ± 0.011 | 0.443 ± 0.011 | 0.407 ± 0.011
x2 = 0.8189 | 888.4 ± 0.7 | 883.6 ± 0.7 | 878.8 ± 0.7 | 1140 ± 5 | 1120 ± 5 | 1100 ± 5 | 0.451 ± 0.011 | 0.412 ± 0.011 | 0.381 ± 0.011
x2 = 0.8855 | 894.5 ± 0.7 | 889.6 ± 0.7 | 884.6 ± 0.7 | 1124 ± 5 | 1104 ± 5 | 1084 ± 5 | 0.419 ± 0.011 | 0.385 ± 0.011 | 0.355 ± 0.01
x2 = 0.9459 | 901.2 ± 0.7 | 896 ± 0.7 | 890.8 ± 0.7 | 1108 ± 5 | 1088 ± 5 | 1068 ± 5 | 0.398 ± 0.011 | 0.366 ± 0.01 | 0.336 ± 0.01

CCOC=O [ethyl methanoate] + CC(C)Cc1ccccc1
x1 = 1
Conditions | mass density [kg/m3] | speed of sound [m/s] | viscosity [mPa·s]
303.15 K | 907.8 ± 0.7 | 1092 ± 5 | 0.373 ± 0.011
308.15 K | 902.6 ± 0.7 | 1072 ± 5 | 0.345 ± 0.01
313.15 K | 897.1 ± 0.7 | 1052 ± 5 | 0.324 ± 0.01

CCOC=O [ethyl methanoate] + CC(C)c1ccccc1
x1 = 1
Conditions | mass density [kg/m3] | speed of sound [m/s] | viscosity [mPa·s]
303.15 K | 907.8 ± 0.7 | 1092 ± 5 | 0.373 ± 0.011
308.15 K | 902.6 ± 0.7 | 1072 ± 5 | 0.345 ± 0.01
313.15 K | 897.1 ± 0.7 | 1052 ± 5 | 0.324 ± 0.01

CCOC=O [ethyl methanoate] + CCCCc1ccccc1
x1 = 1
Conditions | mass density [kg/m3] | speed of sound [m/s] | viscosity [mPa·s]
303.15 K | 907.8 ± 0.7 | 1092 ± 5 | 0.373 ± 0.011
308.15 K | 902.6 ± 0.7 | 1072 ± 5 | 0.345 ± 0.01
313.15 K | 897.1 ± 0.7 | 1052 ± 5 | 0.324 ± 0.01
